Measured values as given in PubChem BioAssay AID1963971 (Molecular Pharmacology Branch, DTP, NCI, 2024).
pIC50: −log10 of the molar value. Several values for one entry are separate records, joined by “and”; a condition that tells them apart may be missing. Equal entries are not always repeated.

System: 953936-095-R-J2-PDC spheroids with HUVEC/MSC, viability
Assay: Anticancer human tumor 953936-095-R-J2-PDC patient-derived cervical squamous cell carcinoma cell line growth inhibition [PI3K]
Settings: for viability, T/C: stronger effect = lower value
From the text: Combinatorial screen of targeted agents with the PI3K inhibitors inavolisib, alpelisib, duvelisib, and copanlisib in multi-cell type tumor spheroids
A high-throughput screen of multi-cell type tumor spheroids was designed to identify active combinations of targeted small molecules and PI3K pathway inhibitors. Complex spheroids include a stromal component modeled by human endothelial cells (HUVEC) and fibroblasts modeled by human mesenchymal stem cells (MSCs). The concentration ranges selected for each drug and investigational agent were based upon clinically achievable concentrations if the clinical Cmax of the agent was known.
Compounds. The drugs and investigational agents: inavolisib (NSC800729), alpelisib (NSC765974), duvelisib (NSC772469), copanlisib (NSC816437), ipatasertib (NSC767898), afuresertib (NSC778305), talazoparib (NSC767125), sapanisertib (NSC764658), selumetinib (NSC741078), tovorafenib (DAY101, NSC766906), vemurafenib (NSC761431), ravoxertinib (NSC781343), sotorasib (NSC818433), MRTX1133 (NSC 836407), abemaciclib (NSC 768073), palbociclib (NSC758247), venetoclax (NSC 766270), SY5609 (NSC837396), enzalutamide (NSC755605), and darolutamide (NSC825331), were obtained from the National Cancer Institute (NCI) Developmental Therapeutics Program Chemical Repository. The FDA-approved anticancer drug set is available from the NCI Developmental Therapeutics Program. […] The stock solutions were prepared in dimethyl sulfoxide (DMSO, Sigma-Aldrich, St. Louis, MO, cat. D2650) at 800-fold the tested concentration and stored at -70 degrees C prior to their use. All drugs and investigational agents were tested over a range starting from a high concentration at or near the clinical Cmax and decreasing in half-log increments. If the clinical Cmax for an agent had not been determined, the highest concentration tested was 10 microM.
Cell Culture. All cells were maintained in an incubator at 37 degrees C and 5% CO2 with 95% humidity. The PDC lines were cultured according to standard operating procedures established by the NCI PDMR (https://pdmr.cancer.gov/sops/default.htm). All PDCs were thawed and cultured in Matrigel-coated flasks prepared with a working solution of 1X Ham's F-12 nutrient mix, without supplementation (Invitrogen, Waltham, MA, cat. 11765054), 100 U/mL penicillin-streptomycin (Invitrogen, cat. 15140122), and 2.5% Matrigel (Corning Inc., Corning, NY, cat. 354248) for the first three passages. The 354836-022-R-J1-PDC, 475296-252-R-J1-PDC, and 997726-040-R-J2-PDC lines were cultured in 6A media, which includes advanced DMEM/F-12 (Thermo Fisher Scientific, cat. 12634028), 10 mM HEPES (Thermo Fisher Scientific, cat. 15630080), 1X GlutaMAX supplement (Thermo Fisher Scientific, cat. 35050061), 0.1 mg/mL primocin (InvivoGen, San Diego, CA, cat. ant-pm-2), 10% defined fetal bovine serum, heat inactivated (HyClone Laboratories Inc., Logan, UT, cat. SH30070.03HI), 50% L-WRN conditioned media (ATCC, cat. CRL-3276), 1.25 mM N-Acetyl-L-cysteine (Sigma-Aldrich, cat. A9165), 10 mM nicotinamide (Sigma-Aldrich, cat. N0636), 1X B-27 supplement (Thermo Fisher Scientific, cat. 17504044), 1X N-2 supplement (Thermo Fisher Scientific, cat. 17502048), and 10 microM Y-27632 dihydrochloride (Tocris Bioscience, Bristol, United Kingdom, cat. 1254). The 624824-186-R-J2-PDC line was cultured in 6C/Colon 1B media, which includes all 6A media components plus 50 ng/mL human EGF recombinant protein (Thermo Fisher Scientific, cat. PHG0311). […]
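Also: spheroids exposed to compounds for seven days before read-out.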

C#Cc1c(F)ccc2cc(O)cc(-c3ncc4c(N5CC6CCC(C5)N6)nc(OCC56CCCN5CC(F)C6)nc4c3F)c12 (configuration not stated)
viability, T/C (compound 0.0316 µM): 115% [middle of 4 runs]
viability, T/C (compound 0.1 µM): 97.5% [middle of 4 runs]
viability, T/C (compound 0.316 µM): 101% [middle of 4 runs]
viability, T/C (compound 1 µM): 92.4% [middle of 4 runs]
viability, T/C (compound 3.16 µM): 85.2% [middle of 4 runs]
viability, T/C (compound 10 µM): 81% [middle of 4 runs]
pIC50 (curve of compound): < 5.00

C=CC(=O)N1CCN(c2nc(=O)n(-c3c(C)ccnc3C(C)C)c3nc(-c4c(O)cccc4F)c(F)cc23)C(C)C1 (configuration not stated)
viability, T/C (compound 0.0316 µM): 93.6% [middle of 4 runs]
viability, T/C (compound 0.1 µM): 100% (2×) and 105% and 96.7%
viability, T/C (compound 0.316 µM): 108% [middle of 4 runs]
viability, T/C (compound 1 µM): 121% [middle of 4 runs]
viability, T/C (compound 10 µM): 118% (2×) and 112% and 127%
pIC50 (curve of compound): < 5.00

Cn1ncc(Cl)c1-c1cc(C(=O)NC(CN)Cc2cccc(F)c2)sc1Cl (configuration not stated)
viability, T/C (compound 0.0316 µM): 93.5% [middle of 4 runs]
viability, T/C (compound 0.1 µM): 82.7% [middle of 4 runs]
viability, T/C (compound 0.316 µM): 64.7% [middle of 4 runs]
viability, T/C (compound 1 µM): 37.6% and 37.7% (2×) and 35.5%
viability, T/C (compound 3.16 µM): 21.1% [middle of 4 runs]
viability, T/C (compound 10 µM): 13.2% and 12.6% (2×) and 13.7%
IC50 (curve of compound): 597 nM [middle of 4 runs]

Cn1cnc2c(F)c(Nc3ccc(Br)cc3Cl)c(C(=O)NOCCO)cc21 + CC(Nc1ccc2c(c1)OCCn1cc(N3C(=O)OCC3C(F)F)nc1-2)C(N)=O
pIC50 (curve of first compound, second compound 0.00316 µM): 6.31
pIC50 (curve of first compound, second compound 0.01 µM): 6.55
pIC50 (curve of first compound, second compound 0.0316 µM): 7.05
pIC50 (curve of first compound, second compound 0.1 µM): > 8.02
pIC50 (curve of first compound, second compound 0.316 µM): > 8.02
pIC50 (curve of first compound, second compound 1 µM): > 8.02
viability, T/C (second compound 0.00316 µM, first compound 0.00949 µM): 88.3%
viability, T/C (second compound 0.00316 µM, first compound 0.03 µM): 81.4%
viability, T/C (second compound 0.00316 µM, first compound 0.0949 µM): 66%
viability, T/C (second compound 0.00316 µM, first compound 0.3 µM): 55.7%
viability, T/C (second compound 0.00316 µM, first compound 0.949 µM): 43.7%
viability, T/C (second compound 0.00316 µM, first compound 3 µM): 30.2%
viability, T/C (second compound 0.01 µM, first compound 0.00949 µM): 75.6%
viability, T/C (second compound 0.01 µM, first compound 0.03 µM): 68.5%
viability, T/C (second compound 0.01 µM, first compound 0.0949 µM): 60%
viability, T/C (second compound 0.01 µM, first compound 0.3 µM): 51.5%
viability, T/C (second compound 0.01 µM, first compound 0.949 µM): 35%
viability, T/C (second compound 0.01 µM, first compound 3 µM): 26.3%
viability, T/C (second compound 0.0316 µM, first compound 0.00949 µM): 67.9%
viability, T/C (second compound 0.0316 µM, first compound 0.03 µM): 56.6%
viability, T/C (second compound 0.0316 µM, first compound 0.0949 µM): 49.7%
viability, T/C (second compound 0.0316 µM, first compound 0.3 µM): 42.5%
viability, T/C (second compound 0.0316 µM, first compound 0.949 µM): 29.7%
viability, T/C (second compound 0.0316 µM, first compound 3 µM): 20.6%
viability, T/C (second compound 0.1 µM, first compound 0.00949 µM): 46%
viability, T/C (second compound 0.1 µM, first compound 0.03 µM): 41.2%
viability, T/C (second compound 0.1 µM, first compound 0.0949 µM): 38.7%
viability, T/C (second compound 0.1 µM, first compound 0.3 µM): 23.9%
viability, T/C (second compound 0.1 µM, first compound 0.949 µM): 16.1%
viability, T/C (second compound 0.1 µM, first compound 3 µM): 7.95%
viability, T/C (second compound 0.316 µM, first compound 0.00949 µM): 28.1%
viability, T/C (second compound 0.316 µM, first compound 0.03 µM): 23%
viability, T/C (second compound 0.316 µM, first compound 0.0949 µM): 16.6%
viability, T/C (second compound 0.316 µM, first compound 0.3 µM): 11.6%
viability, T/C (second compound 0.316 µM, first compound 0.949 µM): 6.22%
viability, T/C (second compound 0.316 µM, first compound 3 µM): 3.26%
viability, T/C (second compound 1 µM, first compound 0.00949 µM): 18.6%
viability, T/C (second compound 1 µM, first compound 0.03 µM): 14.5%
viability, T/C (second compound 1 µM, first compound 0.0949 µM): 10.3%
viability, T/C (second compound 1 µM, first compound 0.3 µM): 8.09%
viability, T/C (second compound 1 µM, first compound 0.949 µM): 4.74%
viability, T/C (second compound 1 µM, first compound 3 µM): 1.5%
